Numbers after ± are expanded uncertainties.
Key:
[1] = 100 kPa, Liquid; for electrical conductivity: Frequency=0.0006 MHz, Alternating current cell with electrodes; for viscosity: Concentric cylinders viscometry; for mass density: Vibrating tube method
[2] = refractive index (Na D-line) (dimensionless); conditions: 100 kPa, Liquid, Standard Abbe refractometry

CC[N+](C)(C)CCOC.O=S(=O)([N-]S(=O)(=O)C(F)(F)F)C(F)(F)F
Conditions | electrical conductivity [S/m] | mass density [kg/m3] | refractive index | viscosity [mPa·s]
[1], 283.15 K | 0.141 ± 0.003 | – | – | –
[1], 288.15 K | 0.182 ± 0.004 | 1440.5 ± 1.1 | – | 100.4 ± 4.1
[1], 289.15 K | – | 1439.5 ± 1.1 | – | –
[1], 290.15 K | – | 1438.6 ± 1.1 | – | –
[1], 291.15 K | – | 1437.6 ± 1.1 | – | –
[1], 292.15 K | – | 1436.7 ± 1.1 | – | –
[1], 293.15 K | 0.23 ± 0.005 | 1435.7 ± 1.1 | – | 78.3 ± 3.2
[1], 294.15 K | – | 1434.8 ± 1.1 | – | –
[1], 295.15 K | – | 1433.8 ± 1.1 | – | –
[1], 296.15 K | – | 1432.8 ± 1.1 | – | –
[1], 297.15 K | – | 1431.9 ± 1.1 | – | –
[1], 298.15 K | 0.285 ± 0.006 | 1431 ± 1.1 | – | 61.5 ± 2.5
[1], 299.16 K | – | 1430 ± 1.1 | – | –
[1], 300.16 K | – | 1429.1 ± 1.1 | – | –
[1], 301.15 K | – | 1428.1 ± 1.1 | – | –
[1], 302.15 K | – | 1427.2 ± 1.1 | – | –
[1], 303.15 K | 0.347 ± 0.007 | 1426.2 ± 1.1 | – | 49.5 ± 2
[1], 304.15 K | – | 1425.3 ± 1.1 | – | –
[1], 305.15 K | – | 1424.4 ± 1.1 | – | –
[1], 306.15 K | – | 1423.4 ± 1.1 | – | –
[1], 307.15 K | – | 1422.5 ± 1.1 | – | –
[1], 308.15 K | 0.415 ± 0.008 | 1421.6 ± 1.1 | – | 40.5 ± 1.6
[1], 309.15 K | – | 1420.6 ± 1.1 | – | –
[1], 310.15 K | – | 1419.7 ± 1.1 | – | –
[1], 311.15 K | – | 1418.8 ± 1.1 | – | –
[1], 312.15 K | – | 1417.8 ± 1.1 | – | –
[1], 313.15 K | 0.489 ± 0.01 | 1416.9 ± 1.1 | – | 33.9 ± 1.4
[1], 314.15 K | – | 1416 ± 1.1 | – | –
[1], 315.15 K | – | 1415.1 ± 1.1 | – | –
[1], 316.15 K | – | 1414.1 ± 1.1 | – | –
[1], 317.15 K | – | 1413.2 ± 1.1 | – | –
[1], 318.15 K | 0.57 ± 0.011 | 1412.3 ± 1.1 | – | 28.2 ± 1.1
[1], 319.15 K | – | 1411.4 ± 1.1 | – | –
[1], 320.15 K | – | 1410.4 ± 1.1 | – | –
[1], 321.15 K | – | 1409.5 ± 1.1 | – | –
[1], 322.15 K | – | 1408.6 ± 1.1 | – | –
[1], 323.15 K | 0.659 ± 0.013 | 1407.7 ± 1.1 | – | 24 ± 1
[1], 324.15 K | – | 1406.8 ± 1.1 | – | –
[1], 325.15 K | – | 1405.9 ± 1.1 | – | –
[1], 326.15 K | – | 1404.9 ± 1.1 | – | –
[1], 327.15 K | – | 1404 ± 1.1 | – | –
[1], 328.15 K | – | 1403.1 ± 1.1 | – | 20.6 ± 0.8
[1], 329.15 K | – | 1402.2 ± 1.1 | – | –
[1], 330.15 K | – | 1401.3 ± 1.1 | – | –
[1], 331.15 K | – | 1400.4 ± 1.1 | – | –
[1], 332.15 K | – | 1399.4 ± 1.1 | – | –
[1], 333.15 K | – | 1398.5 ± 1.1 | – | 18 ± 0.7
[1], 334.15 K | – | 1397.6 ± 1.1 | – | –
[1], 335.16 K | – | 1396.7 ± 1.1 | – | –
[1], 336.15 K | – | 1395.8 ± 1.1 | – | –
[1], 337.15 K | – | 1394.9 ± 1.1 | – | –
[1], 338.15 K | – | 1394 ± 1.1 | – | 15.6 ± 0.6
[1], 339.15 K | – | 1393.1 ± 1.1 | – | –
[1], 340.15 K | – | 1392.2 ± 1.1 | – | –
[1], 341.15 K | – | 1391.3 ± 1.1 | – | –
[1], 342.15 K | – | 1390.4 ± 1.1 | – | –
[1], 343.15 K | – | 1389.5 ± 1.1 | – | 13.7 ± 0.6
[1], 344.15 K | – | 1388.6 ± 1.1 | – | –
[1], 345.15 K | – | 1387.7 ± 1.1 | – | –
[1], 346.15 K | – | 1386.7 ± 1.1 | – | –
[1], 347.15 K | – | 1385.8 ± 1.1 | – | –
[1], 348.15 K | – | 1384.9 ± 1.1 | – | 12.2 ± 0.5
[1], 349.15 K | – | 1384 ± 1.1 | – | –
[1], 350.15 K | – | 1383.1 ± 1.1 | – | –
[1], 351.15 K | – | 1382.2 ± 1.1 | – | –
[1], 352.15 K | – | 1381.3 ± 1.1 | – | –
[1], 353.15 K | – | 1380.4 ± 1.1 | – | 11 ± 0.4
[1], 354.15 K | – | 1379.5 ± 1.1 | – | –
[1], 355.15 K | – | 1378.6 ± 1.1 | – | –
[1], 356.15 K | – | 1377.7 ± 1.1 | – | –
[1], 357.15 K | – | 1376.9 ± 1.1 | – | –
[1], 358.15 K | – | 1376 ± 1.1 | – | 9.7 ± 0.4
[1], 359.15 K | – | 1375.1 ± 1.1 | – | –
[1], 360.15 K | – | 1374.2 ± 1.1 | – | –
[1], 361.15 K | – | 1373.3 ± 1.1 | – | –
[1], 362.16 K | – | 1372.4 ± 1.1 | – | –
[1], 363.15 K | – | 1371.5 ± 1.1 | – | 8.8 ± 0.4
[2], 283.15 K | – | – | 1.4164 ± 0.0017 | –
[2], 288.15 K | – | – | 1.415 ± 0.0017 | –
[2], 293.15 K | – | – | 1.4136 ± 0.0017 | –
[2], 298.15 K | – | – | 1.4121 ± 0.0017 | –
[2], 303.15 K | – | – | 1.4107 ± 0.0017 | –
[2], 308.15 K | – | – | 1.4092 ± 0.0017 | –
[2], 313.15 K | – | – | 1.4078 ± 0.0017 | –
[2], 318.15 K | – | – | 1.4065 ± 0.0017 | –
[2], 323.15 K | – | – | 1.4051 ± 0.0017 | –
[2], 328.15 K | – | – | 1.4037 ± 0.0017 | –
[2], 333.15 K | – | – | 1.4024 ± 0.0017 | –
[2], 338.15 K | – | – | 1.4011 ± 0.0017 | –
[2], 343.15 K | – | – | 1.3998 ± 0.0017 | –
[2], 348.15 K | – | – | 1.3985 ± 0.0017 | –
[2], 353.15 K | – | – | 1.3972 ± 0.0017 | –
[2], 358.15 K | – | – | 1.3959 ± 0.0017 | –

Source: the NIST ThermoML archive (doi:10.1021/acs.jced.9b00442)
